Laboratory results as given in patent US12552738B2, “Crystal forms of amino lipids” (ModernaTX, Inc., priority 2017, dated 2026).
Entries after “also recorded” stand apart in the source; their conditions may differ.

Tests used:
Assay type in all cases: physicochemical
free base pKa = assay: free base pKa
[1] = Dynamic vapor sorption (DVS) isotherm, hygroscopicity; conditions: for water uptake, adsorption isotherm / water uptake, desorption isotherm: 80% relative humidity, 25° C.; for Hygroscopicity/purity decrease: MC3 and MC3 trimesate, water uptake up to 80% RH at 25° C.; for Hygroscopicity / form change after DVS: salts or cocrystals of Compound 1; for Hygroscopicity: DVS isotherm at 25° C.; for form change after DVS: XRPD before and after DVS test at 25° C.
Method: DVS was measured on via a SMS (Surface Measurement Systems) DVS Intrinsic. The relative humidity at 25° C. were calibrated against deliquescence point of LiCl, Mg(NO3)2 and KCl.

[2] = HPLC purity before and after the DVS experiment; conditions: samples prepared with crude and purified free base
Method: Trimesate Type A samples were prepared according to the procedure described in the foregoing, using the crude free base (HPLC purity of 88.5 area %) or purified free base (HPLC purity of 97.6 area %) as starting material, and analyzed by HPLC.

[3] = listed as 4-hydroxybenzoate Polymorph A
[4] = listed as trimellitate Polymorph A

Molecule: CCCCC/C=C\C/C=C\CCCCCCCCC(CCCCCCCC/C=C\C/C=C\CCCCC)OC(=O)CCCN(C)C [MC3, (6Z,9Z,28Z,31Z)-heptatriaconta-6,9,28,31-tetraen-19-yl 4-(dimethylamino)butanoate, reference compound]
- pKa (free base pKa): > 8
- water uptake, adsorption isotherm ([1]; listed as crude free base): 0.24%
- water uptake, adsorption isotherm ([1]; listed as pure free base): 0.14%
- water uptake, desorption isotherm ([1]; listed as crude free base): 0.27%
- water uptake, desorption isotherm ([1]; listed as pure free base): 0.17%
- Hygroscopicity/purity decrease ([1]; listed as crude free base): slightly hygroscopic

Molecule: (6Z,9Z,28Z,31Z)-heptatriaconta-6,9,28,31-tetraen-19-yl 4-(dimethylamino)butanoate trimesate [Trimesate Type A]
- HPLC purity change after the DVS experiment [2]: No significant HPLC purity change
- Hygroscopicity/purity decrease [1]: Non-hygroscopic
- Hygroscopicity/purity decrease ([1]; listed as trimesate Type A): non-hygroscopic (Hygroscopicity concluded using the water uptake up to 80% RH at 25° C.: < 0.2% for non-hygroscopic)
- Hygroscopicity/purity decrease ([1]; listed as trimesate of MC3): non-hygroscopic (Hygroscopicity concluded using the water uptake up to 80% RH at 25° C.: < 0.2% for non-hygroscopic)

Molecule: heptadecan-9-yl 8-((2-hydroxyethyl)amino)octanoate 4-hydroxybenzoate [4-Hydroxybenzoate Polymorph A]
- Hygroscopicity [1]: Non-hygroscopic
- Hygroscopicity [1, 3]: non-hygroscopic
- Hygroscopicity ([1]; listed as 4-hydroxybenzoate of Compound 1): non-hygroscopic
- Hygroscopicity ([1]; listed as Polymorph A of 4-hydroxybenzoate of Compound 1): low hygroscopicity
- form change after DVS [1]: (no)
- form change after DVS [1, 3]: no form change

Molecule: heptadecan-9-yl 8-((2-hydroxyethyl)amino)octanoate orotate [Orotate Polymorph B]
- Hygroscopicity [1]: slightly hygroscopic; also recorded: Hygroscopic

Molecule: heptadecan-9-yl 8-((2-hydroxyethyl)amino)octanoate trimellitate [Trimellitate Polymorph A]
- Hygroscopicity [1]: Slightly hygroscopic
- Hygroscopicity [1, 4]: slightly hygroscopic
- form change after DVS [1]: (no)
- form change after DVS [1, 4]: no form change
